Data taken from US20040234517A1, “Compositions and methods for diagnosing and treating asthma or other allergic or inflammatory diseases” (WYETH, priority 2003, published 2004).
Entries after “also recorded” stand apart in the source; their conditions may differ. Read-outs that look alike come from different tables or passages of the source.

Legend:
arginase [1] = details: cited from earlier work
liver arginase = target: T1, liver arginase (Bos taurus, UniProt Q2KJ64); details: cited from earlier work; for activity toward arginase: concentrations up to 2 mM
T1 sequence (Q2KJ64 1-322): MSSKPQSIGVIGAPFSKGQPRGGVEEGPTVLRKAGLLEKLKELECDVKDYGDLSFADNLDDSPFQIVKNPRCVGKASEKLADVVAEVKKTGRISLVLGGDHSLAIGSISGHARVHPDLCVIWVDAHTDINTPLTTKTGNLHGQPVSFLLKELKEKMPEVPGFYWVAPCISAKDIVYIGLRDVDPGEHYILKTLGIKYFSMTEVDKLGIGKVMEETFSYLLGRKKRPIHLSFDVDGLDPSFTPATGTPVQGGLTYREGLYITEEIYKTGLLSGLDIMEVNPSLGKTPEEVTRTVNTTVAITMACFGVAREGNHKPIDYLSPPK

arginase [2] = target: T2, arginase (Homo sapiens, UniProt P05089); details: cited from earlier work; for Ki: competitive inhibitors of arginase
T2 sequence (P05089 1-322): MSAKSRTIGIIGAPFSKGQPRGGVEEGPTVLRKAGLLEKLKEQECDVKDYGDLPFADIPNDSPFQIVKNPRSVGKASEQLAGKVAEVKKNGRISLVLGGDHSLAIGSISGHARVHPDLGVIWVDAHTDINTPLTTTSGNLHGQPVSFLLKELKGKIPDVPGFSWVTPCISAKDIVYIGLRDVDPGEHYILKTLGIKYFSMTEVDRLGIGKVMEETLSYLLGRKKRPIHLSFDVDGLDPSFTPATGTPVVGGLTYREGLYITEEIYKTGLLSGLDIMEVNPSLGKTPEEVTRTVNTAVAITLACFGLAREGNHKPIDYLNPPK

rat liver arginase (RLA) = rat liver arginase (RLA) (Rattus norvegicus, UniProt P07824); details: cited from earlier work; for IC50: read-out: IC50 towards RLA
arginase [3] = details: cited from earlier work; remark: listed apart in the source
rat tracheal explants = assay: carbachol-induced tracheal contraction; details: 100 mM lysine; preincubated 15 to 20 hours
Experimental: Briefly, rat tracheal explants were preincubated for 15 to 20 hours with either media or media containing 100 mM L-lysine. The trachea were then washed and contraction measured in a Krebs-Henseleit solution in the presence or absence of 100 mM L-lysine.
Rats between 8-10 weeks of age were used for this experiment. Trachea were rapidly excised and cleaned of adherent connective tissue. […] Composition (mM) of the medium included 0.1 nonessential amino acids, 4% FBS, 2.0 glutamine, 0.05β-mercaptoethanol, 100 U/ml penicillin/100 μg/ml streptomycin.
Trachea were supported longitudinally by a rod with a stainless steel pin into the base of a double-jacketed, glass organ bath filled with 15 ml of Krebs-Henseleit (K-H) solution (37° C.) of the following composition (mM): 118 NaCl; 4.7 KCl; 1.2 KH2PO4; 11.1 Dextrose; 1.2 MgSO4; 2.8 CaCl2; and 25 NaHCO3. The solution was continuously gassed with a 5% CO2 and 95% O2 mixture for the duration of each experiment. The upper support was attached by a loop of silk thread to a TSD125 force transducer. […]
At the end of each experiment, all trachea were blotted on a gauze pad and weighted. Tensions were calculated as milligram tensions per milligram weight (mg/mg) and expressed as an individual percentage (%) of 10^−5 M carbachol-evoked force of the trachea in the absence of the drugs. All values were expressed as Mean ± SE. […]

CAT2 = assay: arginine uptake in RAW264.7 cells treated with LPS and IL-13; type: cell-based, murine; details: 20 mM lysine; Control and LPS/IL-13 treated RAW264.7 cells; 100 μM arginine, three minutes
Experimental: Briefly, RAW264.7 cells were exposed to media alone (Control) or CAT2-inducing conditions (LPS/IL-13) for 24 hours and were then evaluated for arginine transport over a three-minute period in a final arginine concentration of 100 μM.
RAW264.7 cells, at 1×10^6, were plated on 24-well tissue culture plates in 0.5 ml cDME. After adhering for 2 hours, 0.5 ml media containing LPS (Sigma) and/or rhIL13 (R&D Systems) was added for final concentrations of 1 μg/ml and 10 ng/ml, respectively. After 20 hours incubation at 37° C. in an atmosphere of 5% CO2 and 95% air, the cells were washed 3 times with Arg Wash Buffer #1 (140 mM choline chloride, 5 mM KCl, 0.9 mM CaCl2, 1 mM MgSO4, 5.6 mM glucose, and 25 mM HEPES, pH7.4), then an additional 4 times with Arg Transport Buffer (137 mM choline chloride, 5.4 mM KCl, 1.8 mM CaCl2, 1.2 mM MgSO4, 10 mM HEPES, adjusted to pH7.4). […] Non-saturable binding was quantitated by incubating a replicate well of each treatment with transport buffer containing […]. […] Protein quantitation was performed using a micro-BCA kit (Pierce) and 400 μl lysate suspended in 10 ml scintillation fluid, loaded into glass scintillation vials, and emissions counted for 1 minute. Specific Arginine Uptake was calculated as Saturable binding (CPM/mg protein 400 μM Arg)— Non-saturable binding (CPM/mg protein 5 mM Arg).

[4] = system: RAW264.7 murine macrophage cells; assay: urea production in RAW264.7 cells treated with LPS and IL-13; type: cell-based; details: 20 mM lysine; LPS/IL-13 treated RAW264.7; 400 μM arginine, 24 hour incubation
Experimental: Briefly, RAW264.7 macrophages exposed to media alone (Control) or CAT2-inducing conditions (LPS/IL-13) for 24 hours were then equilibrated for 2 hours in Arginine Transport Buffer. After a 24 hour incubation in the presence or absence of competing L-lysine in Arginine Transport Buffer containing a final arginine concentration of 400 μM, urea production was evaluated as described in Example 4. Urea production is expressed as μg of urea in the supernatant/mg of cell lysate protein.
RAW264.7 macrophages were stimulated in 24-well plates as for arginine transport studies (above). After 20 hours of stimulation, the cells were washed three times with Arg Wash Buffer #1 and then an additional four times with Arg Transport Buffer. […] Supernatants were clarified by centrifugation at 12,000 rpm for 10 minutes and 100 μl assayed for urea in triplicate using a UV absorbance kit method (R-Biopharma) following the manufacturer's instructions with the exception that it was performed at 1/10 scale in a 96-well assay plate with a total volume of 300 μl/well. Cells were lysed with 500 μl of 1.0% SDS in 10 mM HEPES, pH 7.4 and the protein quantitated using the Micro-BCA kit (Pierce). Urea production was expressed as μg urea/mg protein lysate.

[5] = target: IL-13 (murine, endogenous in OVA-challenged Balb/c mice) (mouse) (UniProt P20109); assay: cell-based or functional assay
Sequence of IL-13 (murine, endogenous in OVA-challenged Balb/c mice) (mouse) (P20109 19-131 limits assumed): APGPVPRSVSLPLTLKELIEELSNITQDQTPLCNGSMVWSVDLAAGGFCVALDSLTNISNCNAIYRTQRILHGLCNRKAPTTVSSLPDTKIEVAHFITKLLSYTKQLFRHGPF

Sequence of rat liver arginase (RLA) (P07824 whole entry): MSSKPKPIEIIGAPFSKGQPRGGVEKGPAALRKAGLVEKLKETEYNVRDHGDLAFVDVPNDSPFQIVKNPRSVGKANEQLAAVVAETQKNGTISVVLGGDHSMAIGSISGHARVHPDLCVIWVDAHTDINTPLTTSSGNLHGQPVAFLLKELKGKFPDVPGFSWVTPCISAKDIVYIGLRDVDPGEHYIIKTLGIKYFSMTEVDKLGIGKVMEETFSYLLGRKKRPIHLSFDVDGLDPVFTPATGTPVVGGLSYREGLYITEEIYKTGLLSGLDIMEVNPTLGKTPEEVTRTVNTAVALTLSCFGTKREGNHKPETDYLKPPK

For N=C(NO)c1ccc(CC(N)C(=O)O)cc1 (racemic) [4-hydroxyamidino-D,L-phenylalanine], the “inhibition of liver arginase and arginase in the alveolar macrophages” value (arginase [1]) is given as “inhibit”.

For NC(CCCCC(N)C(=O)O)=NO (racemic) [N omega-hydroxy-D,L-indospicine], the “inhibition of liver arginase and arginase in the alveolar macrophages” value (arginase [1]) is listed as “inhibit”.

In the case of N=C(NO)NCCC[C@@H](N)C(=O)O [D-NOHA], the “effect on arginase relative to L-NOHA” value (liver arginase) is listed as “much less active”.

In the case of O=C(O)CN(CCN(CC(=O)O)CC(=O)O)CC(=O)O [EDTA], the “inhibition of arginase activity” value (arginase [2]) is given as “do not inhibit”.

In the case of F [F^−, fluoride], the Ki (rat liver arginase (RLA); pH 7.4, uncompetitive towards L-Arg binding, reversible) is given as 1300 µM, the IC50 (rat liver arginase (RLA); pH 7) is given as 1200 µM and the IC50 (rat liver arginase (RLA); pH 10) is given as 19000 µM.

For NC(=O)NCCC[C@H](N)C(=O)O [L-Cit], the “effect on arginase relative to L-NOHA” value (liver arginase) is listed as “much weaker inhibitors” and the activity toward arginase (liver arginase) is listed as “inactive”.

In the case of N=C(NO)NCCC[C@H](N)C(=O)O [L-NOHA, N(omega)-Hydroxy-L-arginine], the Ki (liver arginase; arginase) is listed as 150 µM, the IC50 (arginase [3]; murine macrophages (Buga et al.), read-out: IC50 arginase activity) is listed as 450 µM and the IC50 (arginase [3]; read-out: IC50 hydrolysis of L-arginine to L-ornithine, unstimulated murine macrophages (Tenu et al.)) is listed as 400 µM.

In the case of NCCC[C@H](N)C(=O)O [L-omithine, L-ornithine], the Ki (arginase [2]) is listed as 2000 µM.

In the case of O=NO [NO2^−], the “effect on arginase relative to L-NOHA” value (liver arginase) is given as “without effect”.

In the case of O=[N+]([O-])O [NO3^−], the “effect on arginase relative to L-NOHA” value (liver arginase) is listed as “without effect”.

For [N]=O [NO, nitric oxide], the “effect on arginase relative to L-NOHA” value (liver arginase) is listed as “much weaker inhibitors”.

For OB(O)O [borate], the “inhibition of arginase activity” value (arginase [2]) is listed as “S-hyperbolic I-hyperbolic non-competitive inhibitor”.

For O=C(O)CC(O)(CC(=O)O)C(=O)O [citrate], the “inhibition of arginase activity” value (arginase [2]) is listed as “do not inhibit”.

For N=C(N)N [guanidinium chloride], the Ki (arginase [2]) is given as 100000 µM.

In the case of NO [hydroxylamine], the activity toward arginase (liver arginase) is listed as “inactive”.

In the case of NC(=O)NO [hydroxyurea], the activity toward arginase (liver arginase) is given as “inactive”.

In the case of NCCCC[C@H](N)C(=O)O [lysine], the “carbachol-induced rat tracheal contraction” value (rat tracheal explants) is reported as “inhibited”, the “arginine uptake / saturable arginine transport” value (CAT2) is reported as “inhibited; also recorded: abolished all saturable arginine transport” and the urea production [4] is reported as “inhibited”.

In the case of NC(N)=O [urea], the activity toward arginase (liver arginase) is listed as “inactive”.

Work on “soluble IL-13 receptor fusion protein sIL-13Rα2-Fc (from UniProt O88786 22-334) (Fc fusion)” yielded an inhibition of allergen-induced Arg1 mRNA expression in mouse lung (GeneChip, in vivo) [5] of 67%.
